Earlier results on one molecule are cited in patent US20200179295A1, “MRI-DETECTABLE MULTILAYER MICROCAPSULES FOR ULTRASOUND-TRIGGERED DELIVERY OF PHARMACOLOGICALLY ACTIVE AGENTS” (THE UAB RESEARCH FOUNDATION, priority 2018, published 2020).

Each structure is given as a SMILES string.

For this series the following is noted: 1.5 T; Rohrer et al. 2005.

For `CC(O)CN1CCN(CC(=O)[O-])CCN(CC(=O)[O-])CCN(CC(=O)[O-])CC1.[Gd+3]` (stereo not shown) [ProHance, gadoteridol], the r1 was 4.1 mM⁻¹ s⁻¹.
